In patent publication US20090170899A1, “Stimulators of 5-HT4 receptors and uses thereof” (priority 2004, published 2009):

What was measured:
Assay type in all cases: in vivo, rat
DRN 5-HT neurons = experiment: Extracellular single-unit recordings of DRN 5-HT neuron mean firing rate in anaesthetized rats; settings: prucalopride 2.5 mg/kg, RS 67333 1.5 mg/kg; for enhancement of DRN 5-HT neuron mean firing rate vs control: s.c. osmotic minipumps; for increase of DRN 5-HT neuron firing rate with respect to controls: subacute i.p., 30 min before recordings
Method: In a second part of the study, the selective 5-HT4 agonists prucalopride (Briejer et al., 2001) and RS 67333 (Eglen et al., 1995) were administered either subacutely (i.e. 30 min before the beginning of recordings), or continuously through the use of osmotic minipumps during 3 or 21 days. The selective 5-HT4 antagonist GR 125487 (Gale et al., 1994) was also used to confirm the involvement of 5-HT4 receptors in the effects of the agonists. Successive single-cell extracellular recording tracks were then performed along the DRN of anaesthetized rats. This set of experiments was performed in order to globally assess the effect of such treatments on the mean activity of 5-HT neurons.
Pharmacological treatments. All the 3 different 5-HT4 pharmacological agents were diluted in a solution of physiological saline (NaCl 0.9%), and administered in a dose range known to induce significant binding on 5-HT4 sites (Lucas and Debonnel, 2002; Lamirault and Simon, 2001; Porras et al., 2002). In subacute experiments, prucalopride, RS 67333 or their vehicle were administered i.p. 30 min. before the beginning of recordings. For chronic treatments (both 3 and 21 days), prucalopride, RS 67333 or their vehicle were delivered through osmotic minipumps (Alza, Palo Alto, Calif.) inserted subcutaneously. Electrophysiological recordings were performed with the minipumps in place. […] In a separate set of experiments, the 5-HT4 antagonist GR 125487 was tested in animals treated for 3 days with either prucalopride or RS 67333. Two DRN tracks were first performed, then GR 125487 was administered i.v. (via a lateral vein of the tail) and 2-3 additional tracks were performed, starting 30 min. after the injection. All drug dosages refer to the free base.
Extracellular recordings of DRN 5-HT neurons. Recordings were performed using single-barreled glass micropipettes. Electrodes were filled with a 2 M NaCl solution saturated with Fast Green FCF, resulting in an impedance of 2-5 MΩ. Rats were anaesthetized with chloral hydrate (400 mg/kg, i.p.) and placed in a stereotaxic frame. A burr hole was drilled on the midline 1 mm anterior to lambda. DRN 5-HT neurons were encountered over a distance of 1 mm starting immediately below the ventral border of the Sylvius aqueduct. These neurons were identified using the classical criteria: a slow (0.5-2.5 Hz) and regular firing rate and long-duration (0.8-1.2 ms) positive action potentials (Aghajanian, 1978). In each animal, four to five successive descents were performed along the DRN, and a total of 10-16 cells was recorded. At the end of the experiments, a 25 μA cathodal current was passed through the recording electrode to leave a Fast Green deposit at the recording site. Animals were sacrificed with an i.v. overdose of chloral hydrate, and the brain removed. The site of recording was verified under microscope immediately after experiments.
Statistical analysis. In each experimental group, data were expressed as means±S.E.M. of all the recorded neurons, unless otherwise specified. The effects of the different 5-HT4 agonist administrations on the firing activity of DRN 5-HT neurons was assessed using one-way ANOVAs, followed by the post-hoc Dunnett's test when significant. The influence of GR 125487 on the effect of a 3-day treatment with prucalopride or RS 67333 was assessed using two-way ANOVAs followed by the post-hoc Tukey's test. In all cases, p<0.05 was chosen as the criterion of significance.

[1] = test system: CREB phosphorylation in the hippocampus; experiment: CREB and pCREB immunoreactivities in hippocampal tissue after 3-day treatment; settings: 3 days, prucalopride 2.5, RS 67333 1.5 mg/kg/day; for pCREB/CREB ratio in hippocampal tissue: control 0.196±0.02
Method: Drugs and Chemicals. […] All compounds were diluted in distilled water. All drug dosages refer to the free base. […] BrdU treatments consisted of two administrations per day (50 mg/kg, i.p. each, 8 h interval), starting from the day of minipump insertion until day 2 post-surgery.

[2] = test system: hippocampal CA3 pyramidal neurons; experiment: Acute i.v. prucalopride on firing of hippocampal CA3 pyramidal neurons, with microiontophoresis; settings: prucalopride 1000 μg/kg i.v.
Method: FIGS. 9A to 9D. FIGS. 9A and 9C show a typical example (integrated firing rate histogram) of the response of a single hippocampal pyramidal neuron of the CA3 sub-field to an acute, intravenous administration of the selective 5-HT4 agonist prucalopride (1000 μg/kg), and its reversal by local, microiontophoretic application of the selective 5-HT1A antagonist WAY 100635 (A), or systemic injection of the selective 5-HT4 antagonist GR 125487 (1000 μg/kg, i.v.) (C). Single-cell extracellular recordings were performed in the CA3 region of chloral-hydrate anaesthetized rats by using multiple-barrel glass microelectrodes, combined with microiontophoretic pumps (with the central barrel used for recordings). Pyramidal neurons were identified according to the classical criteria (see Example 5, experimental procedures). FIGS. 9B and 9D show a summary of the effects as for FIGS. 9A and 9C, respectively. Bar histograms represent the mean (S.E.M.) percentage effect, calculated for each neuron with respect to its basal firing rate (i.e. 100% value), and the number in each column represents the number of neurons tested. *p<0.05 vs basal value, one-way ANOVA.
Microiontophoresis and extracellular recordings from hippocampal CA3 pyramidal neurons. Recording and microiontophoresis were performed with five-barreled glass micropipettes broken back to 8-12 μm under microscope control. The central barrel was filled with the same solution as in the DRN and was used for extracellular unitary recordings. Pyramidal neurons were identified by their large amplitude (0.5-1.2 mV) and long-duration (0.8-1.2 ms) simple spikes alternating with complex spike discharges (Kandel and Spencer, 1961). The side barrels contained the following solutions: quisqualate (1.5 mM in 200 mM NaCl, pH 8), WAY 100635 (15 mM in 200 mM NaCl, pH 4), and 2 M NaCl used for automatic current balancing. Rats were mounted in the stereotaxic apparatus and the micropipettes were lowered at 4.2 mm lateral and 4.2 anterior to lambda into the CA3 sub-region of the dorsal hippocampus.
Involvement of endogenous 5-HT and hippocampal 5-HT1A receptors in the effect of 5-HT4 agonists. […] This interpretation is consistent with our own previous findings, showing that both acute and chronic (3-day) administration of the same compounds augment DRN 5-HT neuronal firing activity (Lucas and Debonnel, 2002; Lucas et al., 2005). It is also in keeping with observations from a single in vivo microdialysis study, where acute systemic injection of preferential 5-HT4 agonists increased hippocampal 5-HT efflux (Ge and Barnes, 1996). To further address this possibility, two additional series of experiments were conducted. First, the role of endogenous 5-HT was assessed by using the same protocol as above, in rats co-treated with RS 67333 (or its vehicle) and the 5-HT depleter para-chlorophenylalanine (pCPA). […] The ejection currents of quisqualate needed to activate CA3 pyramidal neurons were, in this case, similar to those used in controls (0 to −2 nA, FIG. 8C). We then tested the ability of a local application of WAY 100635, directly into the CA3 subfield through the use of microiontophoresis, to modify the effect of a 5-HT4 agonist. We chose not to use the previous protocol (i.e. chronic treatments), because, as shown above, the required quisqualate currents differ between the experimental groups. Even though all currents were balanced, it was not possible to exclude the possibility that the amount of quisqualate present in the vicinity of the electrode may have an influence on the quantity of WAY 100635 actually ejected, and/or on its ability to act on pyramidal neurons. For this reason, prucalopride was used acutely in naïve rats, at a dose known to induce a significant augmentation of DRN 5-HT neuronal activity (1000 μg/kg, i.v.) (Lucas and Debonnel, 2002). […]

CCCCN1CCC(CCC(=O)c2cc(Cl)c(N)cc2OC)CC1 [RS 67333, 1-(4-amino-5-chloro-2-methoxyphenyl)-3-(1-n-burtl-4-piperidinyl)-1-propanone]
enhancement of DRN 5-HT neuron mean firing rate vs control (DRN 5-HT neurons; 3-day continuous treatment): 79% | enhancement of DRN 5-HT neuron mean firing rate vs control (DRN 5-HT neurons; 21-day continuous treatment): 59% | increase of DRN 5-HT neuron firing rate with respect to controls (DRN 5-HT neurons): 66% | pCREB/CREB ratio in hippocampal tissue [1]: 0.373±0.07

COCCCN1CCC(NC(=O)c2cc(Cl)c(N)c3c2OCC3)CC1 [prucalopride]
enhancement of DRN 5-HT neuron mean firing rate vs control (DRN 5-HT neurons; 3-day continuous treatment): +50% | enhancement of DRN 5-HT neuron mean firing rate vs control (DRN 5-HT neurons; 21-day continuous treatment): +36% | increase of DRN 5-HT neuron firing rate with respect to controls (DRN 5-HT neurons): 40% | inhibition at 1 mg/kg ([2]; Rattus norvegicus, Pyramidal neuron, iv, Discussion): ~50% | discharge of inhibited CA3 pyramidal neurons ([2]; naïve rats, the 17 inhibited neurons): 46 (±5.6) % of pre-drug values | share of recorded pyramidal neurons inhibited ([2]; 17 of 38 neurons): 45 % of total | increase of pCREB/CREB ratio vs control [1]: +54% | pCREB/CREB ratio in hippocampal tissue [1]: 0.302±0.07
